Test results published in patent US4283527A, “Erythromycylamine 11,12-carbonate and derivatives thereof” (Pfizer Inc., priority 1980, dated 1981).
Read-outs that look alike come from different tables or passages of the source.

How the values were obtained:
Bacillus subtilis = settings: strain 06A001
Providentia stuarti = settings: strain 77A013
Neisseria sicca = settings: strain 66C000
Enterobacter cloacea = settings: strain 67B009
Enterobacter aeruginosa = settings: strain 67A040
Klebsiella oxytoca = settings: strain 53D024
Streptococcus faecalis = settings: strain 02A006
Streptococcus pneumoniae = settings: strain 02J012
Pasteurella multocida = settings: strain 59A001
Hemophilus influenzae = settings: strain 54A036
Providentia retgerii = settings: strain 77CA025
Morgani morgansus = settings: strain 97A001
Serratia marcescens = settings: strain 63A017

Substance: 9(S)-Erythromycylamine 11,12-Carbonate
- MIC (Bacillus subtilis): 0.10 µg/mL
- MIC (Streptococcus pyogenes; strain 02C040): 0.78 µg/mL
- MIC (Streptococcus pyogenes; strain 02C203): < .02 µg/mL
- MIC (Pseudomonas aeruginosa; strain 52A104): > 50 µg/mL
- MIC (Pseudomonas aeruginosa; strain 52A663): > 50 µg/mL
- MIC (Providentia stuarti): > 50 µg/mL
- MIC (Neisseria sicca): 3.12 µg/mL
- MIC (Enterobacter cloacea): > 50 µg/mL
- MIC (Enterobacter aeruginosa): 50 µg/mL
- MIC (Klebsiella oxytoca): > 50 µg/mL
- MIC (Streptococcus faecalis): 0.39 µg/mL
- MIC (Streptococcus pneumoniae): 0.10 µg/mL
- MIC (Pasteurella multocida): 0.39 µg/mL
- MIC (Klebsiella pneumoniae; strain 53A009): 50 µg/mL
- MIC (Klebsiella pneumoniae; strain 53A031): 50 µg/mL
- MIC (Hemophilus influenzae): 3.12 µg/mL
- MIC (Providentia retgerii): > 50 µg/mL
- MIC (Morgani morgansus): > 50 µg/mL
- MIC (Escherichia coli; strain 51A125): 25 µg/mL
- MIC (Escherichia coli; strain 51A129): 25 µg/mL
- MIC (Escherichia coli; strain 51A266): 25 µg/mL
- MIC (Escherichia coli; strain 51A470): 0.78 µg/mL
- MIC (Serratia marcescens): > 50 µg/mL
- MIC (Staphylococcus aureus; strain 01A005): 0.20 µg/mL
- MIC (Staphylococcus aureus; strain 01A052): 0.20 µg/mL
- MIC (Staphylococcus aureus; strain 01A110R, R = resistant to erythromycin): > 50 µg/mL
- MIC (Staphylococcus aureus; strain 01A400R, R = resistant to erythromycin): 12.5 µg/mL
- MIC (Staphylococcus epidermis; strain 01B037R, R = resistant to erythromycin): > 50 µg/mL
- MIC (Staphylococcus epidermis; strain 01B111): 0.20 µg/mL
- MIC (Staphylococcus epidermis; strain 01B126R, R = resistant to erythromycin): > 50 µg/mL
